In patent publication US10973758B2 (O.D. Ocular Discovery Ltd., priority 2013, dated 2021):
Read-outs that look alike come from different tables or passages of the source.

Assays:
[1] = Dissolution in pH-adjusted aqueous solution; type: physicochemical; settings: pH adjusted to ˜6.6 (6.5-6.7)
Text: The natural pH of tear fluid is 7.4; however, discomfort for the user will not be felt as long as the pH of the administered medication stays in the range of 6.6-7.8 (Sampath Kumar et al., “Recent Challenges and Advances in Ophthalmic Drug Delivery System,” in The Pharma Innovation, Vol. 1, No. 4 (2012)). Others administer eye drops at a pH of 5.5 and find this pH to be optimal.

[2] = cited from earlier work; for peak plasma level: oral
thrombus formation = settings: arterial circulation of the brain, rabbit model; cited from earlier work
[3] = test system: ocular inflammatory disease; settings: cited from earlier work
[4] = cited from earlier work
nitric oxide levels = settings: cited from earlier work
cAMP levels = settings: in-vitro, in comparison to a control; cited from earlier work

dissolution in aqueous solution [1]: fully dissolves
Compound: OCCN(CCO)c1nc(N2CCCCC2)c2nc(N(CCO)CCO)nc(N3CCCCC3)c2n1 [dipyridamole, 2,6-bis (diethanolamino)-4,8-dipiperidinopyrimido [5,4-d] pyrimidine]
half-life, third phase of tri-exponential decline ([2]; IV or oral 20-50 mg, followed up to 60 hours): 10 to 12 h
peak plasma level ([2]; after a 25 mg dose): about 0.5 g/mL
peak plasma level ([2]; after a 75 mg dose): 1.6 µg/mL
distribution half-life ([2]; humans, after oral administration): about 3 hours
time to peak plasma levels ([2]; humans, following oral administration): 1 to 3 h
distribution half-life ([2]; humans, intravenous (IV) administration): about 25 minutes
effect on thrombus formation (thrombus formation): reduce thrombus formation
effect in ocular inflammatory disease ([3]; systemically administered): significant beneficial effect
effect in ocular inflammatory disease ([3]; topically administered (in liquid formulation)): ineffective
solubility in methanol ([4]; methanol): very soluble
solubility in water ([4]; water): practically insoluble
effect on nitric oxide levels (nitric oxide levels): increases nitric oxide levels
effect on cAMP levels (cAMP levels): negligible effect
